Test results reported in patent US20250263370A1 (Tay Therapeutics Limited, priority 2022, published 2025).
Several values for one entry are separate records, joined by “and”; a condition that tells them apart may be missing. Equal entries are not always repeated.

Test system: collagen-induced arthritis
Experiment: Collagen-induced arthritis (CIA) model in rats: body weight, paw volume, clinical scores, clinical observations; for Average detailed clinical score, left hind limb: key of the grades not given here; for Average detailed clinical score, right hind limb: key of the grades not given here; for Detailed Clinical Scores, left forelimb: key of the grades not given here; for Detailed Clinical Scores, left hind limb: key of the grades not given here; for Detailed Clinical Scores, right forelimb: key of the grades not given here; for Detailed Clinical Scores, right hind limb: key of the grades not given here; for Detailed Clinical Scores, score: key of the grades not given here; for Detailed Clinical Scores: left forelimb: key of the grades not given here; for Detailed Clinical Scores: left hind limb: key of the grades not given here; for Detailed Clinical Scores: right forelimb: key of the grades not given here; for Detailed Clinical Scores: right hind limb: key of the grades not given here; for Detailed Clinical Scores: score: key of the grades not given here; for Mean overall clinical score ± SD: key of the grades not given here; for overall clinical score: key of the grades not given here
Conditions: for Average detailed clinical score, right hind limb / Average detailed clinical score, score / Mean overall clinical score ± SD / Overall clinical score / Average detailed clinical score, left forelimb / Average detailed clinical score, left hind limb / Average detailed clinical score, right forelimb / Detailed Clinical Scores, left forelimb / Detailed Clinical Scores, left hind limb / Detailed Clinical Scores, right forelimb / Detailed Clinical Scores, right hind limb / Detailed Clinical Scores, score / Detailed Clinical Scores: left forelimb / Detailed Clinical Scores: left hind limb / Detailed Clinical Scores: right forelimb / Detailed Clinical Scores: right hind limb / Detailed Clinical Scores: score: CIA rats; for Overall clinical score: individual animals #1-8; for Mean animal paw volume ± SD: group mean; for Detailed Clinical Scores, left forelimb / Detailed Clinical Scores, left hind limb / Detailed Clinical Scores, right forelimb / Detailed Clinical Scores, right hind limb / Detailed Clinical Scores, score / Detailed Clinical Scores: left forelimb / Detailed Clinical Scores: left hind limb / Detailed Clinical Scores: right forelimb / Detailed Clinical Scores: right hind limb / Detailed Clinical Scores: score: individual animals ID 1-8; for Animal paw volume percent change: individual animals
Description: Prior to be randomly placed in treatment groups, animals were weighed, and paw volume was measured. Once randomly assigned to treatment groups, on Day 0, animals in groups 2-9 were immunized by subcutaneous injection at the base of the tail.
The immunization comprised 100 μL of the CFA+Collagen emulsion (prepared according to the method in Experimental Method A). Animals in group one received no immunization. Seven days after the first injection, animals in groups 2-9 received a booster immunization comprising 200 μL of the IFA+Collagen emulsion (prepared according to the method in Experimental Method A).
Starting on Day 0, animals in group 1 and 2 were administered daily doses of the vehicle per os (P.O.) for 21 days. […] The twice daily doses for animals in groups 4-9 were 8 hours apart (e.g., the first dose at 8:00 AM and the second dose at 4:00 PM).
Body weight of all animals was recorded daily for the 21-day period. Blind clinical scores on all four limbs were conducted for all animals in the study. Animals were assessed prior to receiving their first dose of the compound or control, and scores for each limb were combined to a total daily score for each animal. Clinical score assessments were performed on Day 0, 6, 12, 13, 14, 15, 18, 19, and 21 (for a total of 9 daily scores).
Paw volume was recorded for each animal on Day 0, 6, 12, 13, 14, 15, 18, 19, and 21 (for a total of 9 measurements). To measure paw volume, animals were gently held with one hand while the hind paw was placed into a plethysmometer with the other hand. Lipid displacement by the paw was recorded and used to represent paw volume.
All data measured and recorded was analyzed using SPSS 16.0 software. Groups were compared using one-way ANOVA and significance was set at p<0.05.

Compound: CNC(=O)c1[nH]c(C(=O)NC2CCC2)cc1O[C@@H](C)c1ccccc1 (stereo in doubt) [Example 101, N^5-cyclobutyl-N^2-methyl-3-(1-phenylethoxy)-1H-pyrrole-2,5-dicarboxamide]
- Average detailed clinical score, right hind limb (Day 12, 10 mg/kg): 0.25
- Average detailed clinical score, score (Day 12, 10 mg/kg): 0.50
- Mean overall clinical score ± SD (Day 12, 10 mg/kg): 1 ± 1
- Overall clinical score (Day 12, 10 mg/kg): 1 and 0 and 2
- Average detailed clinical score, left forelimb (Day 12, 30 mg/kg): 0.00
- Average detailed clinical score, left hind limb (Day 12, 30 mg/kg): 0.00
- Average detailed clinical score, right forelimb (Day 12, 30 mg/kg): 0.00
- Average detailed clinical score, right hind limb (Day 12, 30 mg/kg): 0.13
- Average detailed clinical score, score (Day 12, 30 mg/kg): 0.13
- Mean overall clinical score ± SD (Day 12, 30 mg/kg): 0 ± 0
- Mean animal paw volume ± SD (Day 13, L paw, 3 mg/kg): 1.53 mL
- Mean animal paw volume ± SD (Day 13, L paw, 10 mg/kg): 1.52 mL
- Mean animal paw volume ± SD (Day 13, L paw, 30 mg/kg): 1.35 mL
- Mean animal paw volume ± SD (Day 13, R paw, 3 mg/kg): 1.46 mL
- Mean animal paw volume ± SD (Day 13, R paw, 10 mg/kg): 1.45 mL
- Mean animal paw volume ± SD (Day 13, R paw, 30 mg/kg): 1.37 mL
- Detailed Clinical Scores, left forelimb (Day 13, 3 mg/kg): 0
- Detailed Clinical Scores, left hind limb (Day 13, 3 mg/kg): 1 (4×) and 0 (3×) and 2
- Detailed Clinical Scores, right forelimb (Day 13, 3 mg/kg): 0 (6×) and 1 (2×)
- Detailed Clinical Scores, right hind limb (Day 13, 3 mg/kg): 0 (7×) and 1
- Detailed Clinical Scores, score (Day 13, 3 mg/kg): 1 (2×) and 2 (2×) and 0 (3×) and 3
- Detailed Clinical Scores, left forelimb (Day 13, 10 mg/kg): 0
- Detailed Clinical Scores, left hind limb (Day 13, 10 mg/kg): 2 (3×) and 0 (4×) and 1
- Detailed Clinical Scores, right forelimb (Day 13, 10 mg/kg): 0
- Detailed Clinical Scores, right hind limb (Day 13, 10 mg/kg): 1 and 0 (6×) and 2
- Detailed Clinical Scores, score (Day 13, 10 mg/kg): 3 and 0 (4×) and 4 and 2 and 1
- Detailed Clinical Scores, left forelimb (Day 13, 30 mg/kg): 0
- Detailed Clinical Scores, left hind limb (Day 13, 30 mg/kg): 0
- Detailed Clinical Scores, right forelimb (Day 13, 30 mg/kg): 0
- Detailed Clinical Scores, right hind limb (Day 13, 30 mg/kg): 1 and 0 (7×)
- Detailed Clinical Scores, score (Day 13, 30 mg/kg): 1 and 0 (7×)
- Average detailed clinical score, left forelimb (Day 13, 3 mg/kg): 0.00
- Average detailed clinical score, left hind limb (Day 13, 3 mg/kg): 0.75
- Average detailed clinical score, right forelimb (Day 13, 3 mg/kg): 0.25
- Average detailed clinical score, right hind limb (Day 13, 3 mg/kg): 0.13
- Average detailed clinical score, score (Day 13, 3 mg/kg): 1.13
- Mean overall clinical score ± SD (Day 13, 3 mg/kg): 1 ± 1
- Overall clinical score (Day 13, 3 mg/kg): 1 (2×) and 2 (2×) and 0 (3×) and 3
- Average detailed clinical score, left forelimb (Day 13, 10 mg/kg): 0.00
- Average detailed clinical score, left hind limb (Day 13, 10 mg/kg): 0.88
- Average detailed clinical score, right forelimb (Day 13, 10 mg/kg): 0.00
- Average detailed clinical score, right hind limb (Day 13, 10 mg/kg): 0.38
- Average detailed clinical score, score (Day 13, 10 mg/kg): 1.25
- Mean overall clinical score ± SD (Day 13, 10 mg/kg): 1 ± 2
- Overall clinical score (Day 13, 10 mg/kg): 3 and 0 and 4
- Average detailed clinical score, left forelimb (Day 13, 30 mg/kg): 0.00
- Average detailed clinical score, left hind limb (Day 13, 30 mg/kg): 0.00
- Average detailed clinical score, right forelimb (Day 13, 30 mg/kg): 0.00
- Average detailed clinical score, right hind limb (Day 13, 30 mg/kg): 0.13
- Average detailed clinical score, score (Day 13, 30 mg/kg): 0.13
- Mean overall clinical score ± SD (Day 13, 30 mg/kg): 0 ± 0
- Mean animal paw volume ± SD (Day 14, L paw, 3 mg/kg): 1.69 mL
- Mean animal paw volume ± SD (Day 14, L paw, 10 mg/kg): 1.70 mL
- Mean animal paw volume ± SD (Day 14, L paw, 30 mg/kg): 1.35 mL
- Mean animal paw volume ± SD (Day 14, R paw, 3 mg/kg): 1.59 mL
- Mean animal paw volume ± SD (Day 14, R paw, 10 mg/kg): 1.59 mL
- Mean animal paw volume ± SD (Day 14, R paw, 30 mg/kg): 1.37 mL
- Detailed Clinical Scores, left forelimb (Day 14, 3 mg/kg): 0
- Detailed Clinical Scores, left hind limb (Day 14, 3 mg/kg): 1 (7×) and 3
- Detailed Clinical Scores, right forelimb (Day 14, 3 mg/kg): 0 (6×) and 1 (2×)
- Detailed Clinical Scores, right hind limb (Day 14, 3 mg/kg): 1 (2×) and 0 (4×) and 2 and 3
- Detailed Clinical Scores, score (Day 14, 3 mg/kg): 2 (3×) and 4 and 1 (3×) and 6
- Detailed Clinical Scores, left forelimb (Day 14, 10 mg/kg): 0
- Detailed Clinical Scores, left hind limb (Day 14, 10 mg/kg): 3 (3×) and 4 and 0 (4×)
- Detailed Clinical Scores, right forelimb (Day 14, 10 mg/kg): 0
- Detailed Clinical Scores, right hind limb (Day 14, 10 mg/kg): 1 (3×) and 3 and 0 (4×)
- Detailed Clinical Scores, score (Day 14, 10 mg/kg): 4 (2×) and 6 and 5 and 0 (4×)
- Detailed Clinical Scores, left forelimb (Day 14, 30 mg/kg): 0
- Detailed Clinical Scores, left hind limb (Day 14, 30 mg/kg): 0
- Detailed Clinical Scores, right forelimb (Day 14, 30 mg/kg): 0
- Detailed Clinical Scores, right hind limb (Day 14, 30 mg/kg): 1 and 0 (7×)
- Detailed Clinical Scores, score (Day 14, 30 mg/kg): 1 and 0 (7×)
- Average detailed clinical score, left forelimb (Day 14, 3 mg/kg): 0.00
- Average detailed clinical score, left hind limb (Day 14, 3 mg/kg): 1.25
- Average detailed clinical score, right forelimb (Day 14, 3 mg/kg): 0.25
- Average detailed clinical score, right hind limb (Day 14, 3 mg/kg): 0.88
- Average detailed clinical score, score (Day 14, 3 mg/kg): 2.38
- Mean overall clinical score ± SD (Day 14, 3 mg/kg): 2 ± 2
- Overall clinical score (Day 14, 3 mg/kg): 2 (3×) and 4 and 1 (3×) and 6
- Average detailed clinical score, left forelimb (Day 14, 10 mg/kg): 0.00
- Average detailed clinical score, left hind limb (Day 14, 10 mg/kg): 1.63
- Average detailed clinical score, right forelimb (Day 14, 10 mg/kg): 0.00
- Average detailed clinical score, right hind limb (Day 14, 10 mg/kg): 0.75
- Average detailed clinical score, score (Day 14, 10 mg/kg): 2.38
- Mean overall clinical score ± SD (Day 14, 10 mg/kg): 2 ± 3
- Overall clinical score (Day 14, 10 mg/kg): 4 (2×) and 6
- Average detailed clinical score, left forelimb (Day 14, 30 mg/kg): 0.00
- Average detailed clinical score, left hind limb (Day 14, 30 mg/kg): 0.00
- Average detailed clinical score, right forelimb (Day 14, 30 mg/kg): 0.00
- Average detailed clinical score, right hind limb (Day 14, 30 mg/kg): 0.13
- Average detailed clinical score, score (Day 14, 30 mg/kg): 0.13
- Mean overall clinical score ± SD (Day 14, 30 mg/kg): 0 ± 0
- Mean animal paw volume ± SD (Day 15, L paw, 3 mg/kg): 1.86 mL
- Animal paw volume percent change (Day 15, L paw, 3 mg/kg): 31.80% and 28.90% and 44.87% and 22.68% and 86.59% and 50.55% and 30.34%
- Mean animal paw volume ± SD (Day 15, L paw, 10 mg/kg): 1.83 mL
- Animal paw volume percent change (Day 15, L paw, 10 mg/kg): 53.43% and 36.90% and 80.93% and 93.39% and 7.66% and 22.69%
- Mean animal paw volume ± SD (Day 15, L paw, 30 mg/kg): 1.45 mL
- Mean animal paw volume ± SD (Day 15, R paw, 3 mg/kg): 1.92 mL
- Animal paw volume percent change (Day 15, R paw, 3 mg/kg): 25.86% and 20.97% and 74.62% and 27.24% and 84.29% and 50.19% and 48.69%
- Mean animal paw volume ± SD (Day 15, R paw, 10 mg/kg): 1.75 mL
- Animal paw volume percent change (Day 15, R paw, 10 mg/kg): 37.01% and 45.42% and 94.98% and 47.10% and 6.18% and 10.73%
- Mean animal paw volume ± SD (Day 15, R paw, 30 mg/kg): 1.48 mL
- Detailed Clinical Scores: left forelimb (Day 15, 3 mg/kg): 0
- Detailed Clinical Scores: left hind limb (Day 15, 3 mg/kg): 1 (3×) and 2 (3×) and 4 and 3
- Detailed Clinical Scores: right forelimb (Day 15, 3 mg/kg): 0 (6×) and 1 (2×)
- Detailed Clinical Scores: right hind limb (Day 15, 3 mg/kg): 1 (3×) and 3 (2×) and 2 (2×) and 4
- Detailed Clinical Scores: score (Day 15, 3 mg/kg): 2 and 3 (3×) and 6 (2×) and 8 and 4
- Detailed Clinical Scores: left forelimb (Day 15, 10 mg/kg): 0
- Detailed Clinical Scores: left hind limb (Day 15, 10 mg/kg): 3 (2×) and 2 and 4 and 0 (2×) and 1 (2×)
- Detailed Clinical Scores: right forelimb (Day 15, 10 mg/kg): 0
- Detailed Clinical Scores: right hind limb (Day 15, 10 mg/kg): 2 (3×) and 4 and 0 (2×) and 1 (2×)
- Detailed Clinical Scores: score (Day 15, 10 mg/kg): 5 and 4 and 7 and 6 and 0 and 1 (2×) and 2
- Detailed Clinical Scores: left forelimb (Day 15, 30 mg/kg): 0
- Detailed Clinical Scores: left hind limb (Day 15, 30 mg/kg): 0 (6×) and 2 and 1
- Detailed Clinical Scores: right forelimb (Day 15, 30 mg/kg): 0
- Detailed Clinical Scores: right hind limb (Day 15, 30 mg/kg): 1 (2×) and 0 (5×) and 2
- Detailed Clinical Scores: score (Day 15, 30 mg/kg): 1 and 2 (3×) and 0 (4×)
- Average detailed clinical score, left forelimb (Day 15, 3 mg/kg): 0.00
